The record followed here is ChEMBL document CHEMBL5518238, “Structure-Activity Relationship (SAR) Studies of Novel Monovalent AR/AR-V7 Dual Degraders with Potent Efficacy against Advanced Prostate Cancer” (J Med Chem, 2024).

Activity calls are given as the source filed them. The rule behind the calls is not given here.

In general, IC50 refers to the concentration needed to halve the response being measured.

In the first data set the test system is CWR22R. Briefly: Antitumor activity against human 22Rv1 cells xenografted in NSG mouse assessed as change in tumor volume at 30 mg/kg, IG administered once daily for 21 days. As to conditions: time 21.0 day. The format is functional, organism-based. A general note: Xenograft models place foreign cells or tissue in a host animal.
Take `C[C@]12CC[C@H](O)CC1=CC[C@@H]1[C@@H]2CC[C@]2(C)C(c3cccnc3)=CC[C@@H]12` [ABIRATERONE]: the result was Active.

Turning to `CNC(=O)c1ccc(N2C(=S)N(c3ccc(C#N)c(C(F)(F)F)c3)C(=O)C2(C)C)cc1F` [ENZALUTAMIDE], the result was Active.

System in another data set: not listed separately
Kind of data set: Toxicity in NSG mouse xenografted with human 22Rv1 cells assessed as effect on body weight at 30 mg/kg, IG administered once daily for 21 days. Particulars: in vivo, po, 504 h, time 21 day. The class given is organism-based, CWR22R.
With `C[C@]12CC[C@H](O)CC1=CC[C@@H]1[C@@H]2CC[C@]2(C)C(c3cccnc3)=CC[C@@H]12` [ABIRATERONE], the Activity result is on record as “Non-Toxic”.

With `CNC(=O)c1ccc(N2C(=S)N(c3ccc(C#N)c(C(F)(F)F)c3)C(=O)C2(C)C)cc1F` [ENZALUTAMIDE], the Activity entry was “Non-Toxic”.

Another data set deals with CWR22R. Kind of data set: cells. The format is functional, cell-based. Particulars: Homo sapiens, 22Rv1, 48 h.
Description: Antiproliferative activity against AR/AR-V7 positive human 22Rv1 cells assessed as inhibition of cell growth incubated for 48 hrs by CCK-8 assay
With `CC1(C)C(=O)N(c2ccc(C#N)c(C(F)(F)F)c2)C(=O)N1CCCNc1ccc2ccncc2c1`, 22 µM corresponded to half-maximal inhibition (IC50).

`CC1(C)C(=O)N(c2ccc(C#N)c(C(F)(F)F)c2)C(=O)N1CCNc1ccc(C#N)c2ncccc12`: the IC50 came out at 2.8 µM. The same measure, in the same setting: next, `CC1(C)C(=O)N(c2ccc(C#N)c(C(F)(F)F)c2)C(=O)N1CCn1cc(F)cn1`: 7.9 µM; `Cc1ccc(NCCCN2C(=O)N(c3ccc(C#N)c(C(F)(F)F)c3)C(=O)C2(C)C)c2cccnc12`: 36.8 µM; `CC1(C)C(=O)N(c2ccc([N+](=O)[O-])c(C(F)(F)F)c2)C(=O)N1CC(=O)Nc1ccccn1`: over 50 µM.

On to `CC1(C)C(=O)N(c2ccc(C#N)c(C(F)(F)F)c2)C(=O)N1CC(=O)NCc1cccnc1`, for which the midpoint of inhibition, the IC50, lay at 22.1 µM. Still for that read-out and setting: for `CC1(C)C(=O)N(c2ccc(C#N)c(C(F)(F)F)c2)C(=O)N1CC(=O)Nc1cccc2cccnc12` the value was 23.5 µM; for `CC1(C)C(=O)N(c2ccc(C#N)c(C(F)(F)F)c2)C(=O)N1CCCNc1ccc2ncccc2c1`, 27.3 µM. In turn, `CC1(C)C(=O)N(c2ccc([N+](=O)[O-])c(C(F)(F)F)c2)C(=O)N1CC(=O)NCc1cccnc1` came in with an IC50 of over 50 µM. On to `Cc1ccc(NCCN2C(=O)N(c3ccc(C#N)c(C(F)(F)F)c3)C(=O)C2(C)C)c2cccnc12`, for which the IC50 was determined as 9.8 µM.

In the case of `CC1(C)C(=O)N(c2ccc(C#N)c(C(F)(F)F)c2)C(=O)N1Cn1cc(F)cn1`, the IC50 turned out to be 14.5 µM.

Compound `CC1(C)C(=O)N(c2ccc(C#N)c(C(F)(F)F)c2)C(=O)N1CCNc1cccc2cccnc12` returned an IC50 of over 50 µM. In turn, `CC1(C)C(=O)N(c2ccc(C#N)c(C(F)(F)F)c2)C(=O)N1CC(=O)Nc1cnc2ccccc2c1` returned an IC50 of 14.6 µM. `CC1(C)C(=O)N(c2ccc([N+](=O)[O-])c(C(F)(F)F)c2)C(=O)N1CC(=O)NCc1ccccn1` returned an IC50 of 26 µM. The compound `CC1(C)C(=O)N(c2ccc(C#N)c(C(F)(F)F)c2)C(=O)N1CCNc1cncnc1` yielded an IC50 of 43.9 µM. Take `CC1(C)C(=O)N(c2ccc(C#N)c(C(F)(F)F)c2)C(=O)N1CC(=O)NCc1ccccn1`: half-maximal inhibition (IC50) required 33.7 µM. With `CC1(C)C(=O)N(c2ccc(C#N)c(C(F)(F)F)c2)C(=O)N1CC(=O)Nc1cccnc1`, half-maximal inhibition (IC50) required 10.8 µM. Regarding `CC1(C)C(=O)N(c2ccc(C#N)c(C(F)(F)F)c2)C(=O)N1CCN(c1ccc(-c2ccncc2)cc1)c1ccc(-c2ccncc2)cc1`, the IC50 is over 50 µM. The same measure, in the same setting: for `CC1(C)C(=O)N(c2ccc(C#N)c(C(F)(F)F)c2)C(=O)N1CC(=O)Nc1ccccn1` the value was 17 µM. Turning to `CC1(C)C(=O)N(c2ccc(C#N)c(C(F)(F)F)c2)C(=O)N1CCNc1ccc2cccnc2c1`, inhibition was half-maximal at 2.2 µM (IC50).

Consider `CC1(C)C(=O)N(c2ccc(C#N)c(C(F)(F)F)c2)C(=O)N1CCN(c1ccc2nccnc2c1)c1ccc2nccnc2c1`, for which the IC50 was 12.2 µM.

`CC1(C)C(=O)N(c2ccc(C#N)c(C(F)(F)F)c2)C(=O)N1CCCNc1cccc2ncccc12` had a 50% inhibitory concentration (IC50) of 25.7 µM. For `CC1(C)C(=O)N(c2ccc(C#N)c(C(F)(F)F)c2)C(=O)N1CCNc1ccc2ncccc2c1`, the midpoint of inhibition, the IC50, lay at 5.4 µM.

Turning to `CC1(C)C(=O)N(c2ccc(C#N)c(C(F)(F)F)c2)C(=O)N1CCNc1ccc2ccccc2n1`, the IC50 worked out at 11.7 µM. As for `CC1(C)C(=O)N(c2ccc(C#N)c(C(F)(F)F)c2)C(=O)N1CCN(c1ccc2ncncc2c1)c1ccc2ncncc2c1`, the IC50 is 15 µM. On the same count and under the same terms, next, `CC1(C)C(=O)N(c2ccc(C#N)c(C(F)(F)F)c2)C(=O)N1CCNc1cccnc1`: 11.9 µM.

For the compound `N#Cc1ccc(O[C@H]2CC[C@H](NC(=O)c3ccc(N4CCC(CN5CCN(c6cc7c(cc6F)C(=O)N(C6CCC(=O)NC6=O)C7=O)CC5)CC4)nn3)CC2)cc1Cl` (stereo not given in full) [BAVDEGALUTAMIDE], inhibition was half-maximal at 3.9 µM (IC50). Still for that read-out and setting: for `CC1(C)C(=O)N(c2ccc(C#N)c(C(F)(F)F)c2)C(=O)N1CCNc1ccc([N+](=O)[O-])c2ncccc12` the value was 3.1 µM; for `CC1(C)C(=O)N(c2ccc(C#N)c(C(F)(F)F)c2)C(=O)N1CCNc1ncccn1`, 24.9 µM. On the same count and under the same terms, next, `CC1(C)C(=O)N(c2ccc(C#N)c(C(F)(F)F)c2)C(=O)N1CCNc1cccc2ncccc12`: 1.3 µM; `CC1(C)C(=O)N(c2ccc(C#N)c(C(F)(F)F)c2)C(=O)N1CCN(c1ccc2ncccc2c1)c1ccc2ncccc2c1`: 6.8 µM. Take `CC1(C)C(=O)N(c2ccc(C#N)c(C(F)(F)F)c2)C(=O)N1Cn1cc(Br)cn1`: half-maximal inhibition (IC50) required 23.2 µM.

On to `CC1(C)C(=O)N(c2ccc(C#N)c(C(F)(F)F)c2)C(=O)N1CCNc1ccccn1`, for which the IC50 turned out to be 13.1 µM.

In the case of `CC1(C)C(=O)N(c2ccc(C#N)c(C(F)(F)F)c2)C(=O)N1CC(=O)Nc1cccc2ncccc12`, the IC50 was determined as 24.9 µM. On the same count and under the same terms, for `CC1(C)C(=O)N(c2ccc(C#N)c(C(F)(F)F)c2)C(=O)N1CCn1cc(Br)cn1` the value was 46.3 µM. With `CC1(C)C(=O)N(c2ccc(C#N)c(C(F)(F)F)c2)C(=O)N1Cn1cc(C(F)(F)F)cn1`, it took 11.3 µM to reach half-maximal inhibition (IC50). The compound `CC1(C)C(=O)N(c2ccc(C#N)c(C(F)(F)F)c2)C(=O)N1CCCn1cc(C(F)(F)F)cn1` showed an IC50 of 19.8 µM.

For the compound `CC1(C)C(=O)N(c2ccc([N+](=O)[O-])c(C(F)(F)F)c2)C(=O)N1CC(=O)Nc1cccnc1`, the half-inhibitory concentration (IC50) was over 50 µM. Consider `CC1(C)C(=O)N(c2ccc(C#N)c(C(F)(F)F)c2)C(=O)N1CC(=O)Nc1ccnc2ccccc12`, for which the IC50 turned out to be 13.8 µM. Turning to `CC1(C)C(=O)N(c2ccc(C#N)c(C(F)(F)F)c2)C(=O)N1CCNc1cccc2ccccc12`, the IC50 is 19.5 µM. Regarding `CC1(C)C(=O)N(c2ccc(C#N)c(C(F)(F)F)c2)C(=O)N1CCNc1ccc2cnccc2c1`, the IC50 came out at 5.1 µM. `CC1(C)C(=O)N(c2ccc(C#N)c(C(F)(F)F)c2)C(=O)N1CCNc1ccc2ccccc2c1` came in with an IC50 of over 50 µM. With `C[C@]12CC[C@H](O)CC1=CC[C@@H]1[C@@H]2CC[C@]2(C)C(n3cnc4ccccc43)=CC[C@@H]12` [GALETERONE], the IC50 is 11.6 µM. The same measure, in the same setting: next, `CNC(=O)c1ccc(N2C(=S)N(c3ccc(C#N)c(C(F)(F)F)c3)C(=O)C2(C)C)cc1F` [ENZALUTAMIDE]: 15.6 µM; `CC1(C)C(=O)N(c2ccc(C#N)c(C(F)(F)F)c2)C(=O)N1CCNc1cccc2ccncc12`: 7.8 µM; `CC1(C)C(=O)N(c2ccc(C#N)c(C(F)(F)F)c2)C(=O)N1CCNc1ccc2ccncc2c1`: 2.3 µM.

`CC(C)(c1ccc(OC[C@H](O)CO)cc1)c1ccc(OC[C@H](O)CCl)cc1` showed an IC50 of 40.4 µM. In turn, `CC1(C)C(=O)N(c2ccc(C#N)c(C(F)(F)F)c2)C(=O)N1CCCn1cc(F)cn1` showed an IC50 of 3.7 µM. Same read-out and setting: for `CC1(C)C(=O)N(c2ccc(C#N)c(C(F)(F)F)c2)C(=O)N1CCNc1cnc2ccccc2c1` the value was 49.5 µM; for `CC1(C)C(=O)N(c2ccc(C#N)c(C(F)(F)F)c2)C(=O)N1CCCn1ccc2cc(F)ccc21`, 13.6 µM. The compound `CC1(C)C(=O)N(c2ccc(C#N)c(C(F)(F)F)c2)C(=O)N1CC(=O)Nc1ccc2ncccc2c1` showed a 50% inhibitory concentration (IC50) of 35.8 µM.

In turn, `CC1(C)C(=O)N(c2ccc(C#N)c(C(F)(F)F)c2)C(=O)N1CCCNc1cccc2ccncc12` gave an IC50 of 21.8 µM. For `CC1(C)C(=O)N(c2ccc(C#N)c(C(F)(F)F)c2)C(=O)N1CCN(c1ccc2cccnc2c1)c1ccc2cccnc2c1`, the IC50 was over 50 µM.

In the case of `CC1(C)C(=O)N(c2ccc(C#N)c(C(F)(F)F)c2)C(=O)N1CCCn1cc(Br)cn1`, the IC50 is 2 µM. `CC1(C)C(=O)N(c2ccc(C#N)c(C(F)(F)F)c2)C(=O)N1CCNc1ccnc2ccccc12` yielded an IC50 of 8.7 µM. Consider `CC1(C)C(=O)N(c2ccc(C#N)c(C(F)(F)F)c2)C(=O)N1CCNc1cnccn1`, for which the IC50 came out at 10.6 µM. The compound `CC1(C)C(=O)N(c2ccc(C#N)c(C(F)(F)F)c2)C(=O)N1CCn1cnc(C(F)(F)F)n1` came in with an IC50 of 10.3 µM.

`CC1(C)C(=O)N(c2ccc(C#N)c(C(F)(F)F)c2)C(=O)N1CCn1cc(C(F)(F)F)cn1` gave an IC50 of 8.9 µM.

System in another data set: not listed separately
Briefly: Antiproliferative activity against human L02 cells assessed as inhibition of cell growth incubated for 48 hrs by CCK-8 assay. The format is toxicity, cell-based.
Settings: not given
As to `C[C@]12CC[C@H](O)CC1=CC[C@@H]1[C@@H]2CC[C@]2(C)C(n3cnc4ccccc43)=CC[C@@H]12` [GALETERONE], the IC50 at 48 h was over 100 µM.

A further data set relates to DU-145. Briefly: Antiproliferative activity against AR-negative human DU-145 cells assessed as inhibition of cell growth incubated for 48 hrs by CCK-8 assay. The format is functional, cell-based. Particulars: DU-145, 48 h. (In general: Tetrazolium dyes change colour on reduction, which living cells bring about.)
In the case of `CC1(C)C(=O)N(c2ccc(C#N)c(C(F)(F)F)c2)C(=O)N1CCNc1ccc(C#N)c2ncccc12`, the IC50 was over 50 µM. Regarding `Cc1ccc(NCCN2C(=O)N(c3ccc(C#N)c(C(F)(F)F)c3)C(=O)C2(C)C)c2cccnc12`, the IC50 is over 50 µM. Turning to `CC1(C)C(=O)N(c2ccc(C#N)c(C(F)(F)F)c2)C(=O)N1CCNc1ccc([N+](=O)[O-])c2ncccc12`, the IC50 was over 50 µM. On the same count and under the same terms, next, `CC1(C)C(=O)N(c2ccc(C#N)c(C(F)(F)F)c2)C(=O)N1CCNc1ccc2cnccc2c1`: 33 µM; `CC1(C)C(=O)N(c2ccc(C#N)c(C(F)(F)F)c2)C(=O)N1CCNc1cccc2ccncc12`: over 50 µM. For the compound `CC1(C)C(=O)N(c2ccc(C#N)c(C(F)(F)F)c2)C(=O)N1CCNc1ccc2ccncc2c1`, the IC50 was over 50 µM.

The test system of the next data set is LNCaP. Kind of data set: Antiproliferative activity against human LNCaP cells assessed as inhibition of cell growth incubated for 48 hrs by CCK-8 assay.
Settings: not given
The class given is functional, cell-based.
For `C[C@]12CC[C@H](O)CC1=CC[C@@H]1[C@@H]2CC[C@]2(C)C(n3cnc4ccccc43)=CC[C@@H]12` [GALETERONE], the IC50 amounted to 2 µM.
